Data on two compounds can be found in patent US20220249540A1, “INHALABLE COMPOSITION COMPROMISING CYCLODEXTRIN FOR USE IN THE TREATMENT OF NASAL INFLAMMATIONS” (AQUILON PHARMACEUTICALS SA, priority 2019, published 2022).

The test system of data set [1] is goblet cells in nasal mucosa tissue. As to the kind of experiment: goblet cells in nasal mucosa tissue of Ovalbumin-sensitized mice (PAS staining). Type of data set: in vivo, BALB/c mice. To be noted: 50 mM in PBS by aerosolization 360 min before each OVA inhalation, Day 22 to 98; control group 50%. On the procedure: Eight male and female BALB/c mice (6-8 weeks of age at the beginning of the protocol) were sensitized with Ovalbulmin (OVA) on D1 and D11 by intraperitoneal (i.p.) injection (10 μg grade V OVA diluted in 200 μl PBS), followed by OVA aerosols (10% grade Ill OVA dissolved in PBS buffer −50 ml were aerosolized with ultrasonic nebulizer during 30 minutes in a 30×20×15 cm Plexiglas exposure box where the animals were authorized to breathe and move normally). Aerosol administration was performed 360 min after i.n. treatments with Placebo or hydroxypropyl-gamma-cyclodextrin (HP-gamma-CD) during even weeks from days 22 to 98 (5 days/even week).
Mice were treated from Day 22 to Day 98 (5 days per week even week) with PBS (8 mice in control group) or with hydroxypropyl-gamma-cyclodextrin 50 mM diluted in PBS (8 mice in treated group) by aeorosolization (50 ml were aerosolized during 30 minutes in a Plexiglas exposure box where the animals were authorized to breathe and move normally) 360 min before each OVA inhalation.
On Day 99, the animals were sacrificed. […]
Numbers of goblet cells were counted using digitalized images of histological slides. Three hundred epithelial cells were counted at random and the percentage of positive cells for PAS staining (Goblet cells) was established relative to cells negative for PAS staining.

The next data set concerns Wistar rats. The experiment in a line: two-week Dose-Range-Finding (DRF) Inhalation Study, histopathology of the nasal cavities. Type of data set: in vivo. As to conditions: for Normal (number of animals with normal nasal cavity histopathology): 3 examined. On the procedure:
Hydroxypropylbetacyclodextrin (HPBCD) was administered during two-weeks in a Dose-Range-Finding (DRF) Inhalation Study to Wistar rats in three different delivered doses: • low of 20 mg/kg/day and a target atmosphere concentration of 0.3 mg/L, • medium of 60 mg/kg/day and a target atmosphere concentration of 0.9 mg/L, and • […] to each three male and three non-pregnant female rats.
A control group which received control vehicle in the form of citrate buffer was provided with three male and three non-pregnant female rats. After terminal euthanasia, the nasal cavity was removed. Nasal cavities were embedded in paraffin wax, sections were cut at 4-6 μm by microtome and transferred to slides. Tissue sections were stained with haematoxylin-eosin/phloxine and examined by light microscope. Full histopathology of the nasal cavities, as well as the other organs of the respiratory tract, was performed in each group and is shown in FIG. 1. 4 levels of the nasal cavities were examined, among which 1 level included the nasopharyngeal duct and Nasal Associated Lymphoid Tissue (NALT).
Nasal cavities analyzed by histopathology were normal at all exposure levels of HPBCD.

Take “2-hydroxypropyl-γ-cyclodextrin [Hydroxypropyl-gamma-cyclodextrin]”: in data set [1], the “% of goblet cells in nasal mucosa tissue” value is listed as 20%.

Regarding `CC(O)COC[C@H]1O[C@@H]2O[C@H]3[C@H](O)[C@@H](O)[C@@H](O[C@H]4[C@H](O)[C@@H](O)[C@@H](O[C@H]5[C@H](O)[C@@H](O)[C@@H](O[C@H]6[C@H](O)[C@@H](O)[C@@H](O[C@H]7[C@H](O)[C@@H](O)[C@@H](O[C@H]8[C@H](O)[C@@H](O)[C@@H](O[C@H]1[C@H](O)[C@H]2O)O[C@@H]8COCC(C)O)O[C@@H]7COCC(C)O)O[C@@H]6COCC(C)O)O[C@@H]5COCC(C)O)O[C@@H]4COCC(C)O)O[C@@H]3COCC(C)O` (stereo partly drawn) [HPBCD, 2-hydroxypropyl-beta-cyclodextrin], the “Normal (number of animals with normal nasal cavity histopathology)” value with Wistar rats (Female, High dosage (180 mg/kg/day)) amounted to 3; in the data set on Wistar rats (Female, Low dosage (20 mg/kg/day)), 3; in the data set on Wistar rats (Female, Mid dosage (60 mg/kg/day)), 3; in the data set on Wistar rats (Male, High dosage (180 mg/kg/day)), 3; with Wistar rats (Male, Low dosage (20 mg/kg/day)) it was 3; in the data set with Wistar rats (Male, Mid dosage (60 mg/kg/day)), 3. Further, the “Nasal cavities analyzed by histopathology” value in the data set on Wistar rats (all exposure levels (20, 60, 180 mg/kg/day), nose-only inhalation, 90 min/day, 14 days) is “normal”.
